The results in this text go back to patent publication US11951108B2, “Combination therapy for treating cancer” (Epizyme, Inc., priority 2016, dated 2024).

Read-outs that look alike come from different tables or passages of the source.

For one data set, the system named is A2780. The data set can be described thus: In vitro combination study, ovarian cancer cell line A2780.
The subject of a further data set is TOV112D. The data set can be described thus: In vitro combination study, ovarian cancer cell line TOV112D. The conditions noted are these: 4+3 model.
The next data set has as its system RMUGS*. The data set can be described thus: In vitro combination study, ovarian cancer cell line RMUGS. The note with it: 7+3 model.
The next data set concerns COV644*. The data set can be described thus: In vitro combination study, ovarian cancer cell line COV644. The note with it: COV644*; 7+3 model.
For the next data set, the system named is KURAMOCHI
The data set can be described thus: In vitro combination study, ovarian cancer cell line KURAMOCHI
The conditions noted are these: KURAMOCHI; 4+3 model.

Another data set relates to CAOV-3. The data set can be described thus: In vitro combination study, ovarian cancer cell line CAOV-3. The conditions noted are these: 4+3 model. Type of data set: cell-based.
The subject of another data set is OVISE. The experiment in a line: In vitro combination study, ovarian cancer cell line OVISE. The conditions noted are these: OVISE; 4+3 model.
The subject of a further data set is SNU840. The experiment in a line: In vitro combination study, ovarian cancer cell line SNU840. The note with it: SNU840; 4+3 model.
Another data set relates to SKOV3. The experiment in a line: In vitro combination study, ovarian cancer cell line SKOV3. The note with it: 4+3 model.
For the next data set, the system named is CAMA-1. The experiment in a line: In vitro combination study, breast cancer cell line CAMA-1. Type of data set: cell-based. The note with it: ER/PR +/−, HER2 +, 7 day pre-treatment + 6 day co-treatment.
In the next data set the test system is HCC1419. The data set can be described thus: In vitro combination study, breast cancer cell line HCC1419. The note with it: ER/PR −/−, HER2 +, 7 day pre-treatment + 6 day co-treatment.
The next data set relates to ES-2. The experiment in a line: In vitro combination study, ovarian cancer cell line ES-2. The note with it: 4+3 model.
Another data set concerns SUM52PE. The experiment in a line: In vitro combination study, breast cancer cell line SUM52PE. The conditions noted are these: ER/PR −/−, HER2 −, 7 day pre-treatment + 6 day co-treatment.
Another data set has as its system JH)S-4. The data set can be described thus: In vitro combination study, ovarian cancer cell line JH)S-4. The conditions noted are these: 4+3 model.
In a further data set the test system is SUM159PT. The experiment in a line: In vitro combination study, breast cancer cell line SUM159PT. The note with it: ER/PR −/−, HER2 −, 7 day pre-treatment + 6 day co-treatment.
For another data set, the system named is OVMANA. The data set can be described thus: In vitro combination study, ovarian cancer cell line OVMANA. The conditions noted are these: OVMANA; 4+3 model.
The test system of a further data set is COV362. The data set can be described thus: In vitro combination study, ovarian cancer cell line COV362. The note with it: COV362; 4+3 model.
The next data set has as its system OVSAHO. The data set can be described thus: In vitro combination study, ovarian cancer cell line OVSAHO. The conditions noted are these: 4+3 model.
For another data set, the system named is TOV21G. The experiment in a line: In vitro combination study, ovarian cancer cell line TOV21G. Type of data set: cell-based. The conditions noted are these: 4+3 model.
For a further data set, the system named is OV-90. The data set can be described thus: In vitro combination study, ovarian cancer cell line OV-90. The conditions noted are these: OV-90; 4+3 model.
In the next data set the test system is BT474. The data set can be described thus: In vitro combination study, breast cancer cell line BT474. The note with it: ER/PR +/+, HER2 +, 7 day pre-treatment + 6 day co-treatment.
In another data set the test system is DU4475. The experiment in a line: In vitro combination study, breast cancer cell line DU4475. The note with it: ER/PR −/−, HER2 −, 7 day pre-treatment + 6 day co-treatment.

Turning to `CC1(C)CCC(CN2CCN(c3ccc(C(=O)NS(=O)(=O)c4ccc(NCC5CCOCC5)c([N+](=O)[O-])c4)c(Oc4cnc5[nH]ccc5c4)c3)CC2)=C(c2ccc(Cl)cc2)C1` [ABT199], the “Synergy or antagonism of second agent with tazemetostat (IC50 shift of second agent)” value in the data set with A2780 (A2780, 4+3 model) is on record as “C (Synergy > 2× IC50 shift)”; in the data set with TOV112D it was “C (Synergy > 2× IC50 shift)”.
With `COc1cc2c(Oc3ccc4[nH]c(C)cc4c3F)ncnc2cc1OCCCN1CCCC1` [AZD2171], the “Synergy or antagonism of second agent with tazemetostat (IC50 shift of second agent)” value was “C (Synergy > 2× IC50 shift)” with A2780 (A2780, 4+3 model); “C (Synergy > 2× IC50 shift)” with RMUGS*; “B (Synergy > 4× IC50 shift)” in the data set on COV504 (COV504, 4+3 model); “C (Synergy > 2× IC50 shift)” in the data set with COV644*; “C (Synergy > 2× IC50 shift)” in the data set on KURAMOCHI.
Take `Cc1nc(NC(=O)N2CCC[C@H]2C(N)=O)sc1-c1ccnc(C(C)(C)C(F)(F)F)c1` [BYL719]: the “Synergy or antagonism of second agent with tazemetostat (IC50 shift of second agent)” value in the data set with CAOV-3 is listed as “C (Synergy > 2× IC50 shift)”; in the data set with OVISE, “C (Synergy > 2× IC50 shift)”; in the data set on A2780 (A2780, 4+3 model), “B (Synergy > 4× IC50 shift)”; in the data set on TOV112D it was “C (Synergy > 2× IC50 shift)”; in the data set with COV504 (COV504, 4+3 model) it was “B (Synergy > 4× IC50 shift)”; with SNU840 it was “B (Synergy > 4× IC50 shift)”. The “Synergy or antagonism of second agent with tazemetostat (IC50 shift of second agent)” value in the data set on COV644* and in the data set on SKOV3 was “C (Synergy > 2× IC50 shift)” throughout.
On to `N.N.O=C([O-])C1(C(=O)[O-])CCC1.[Pt+2]` [Carboplatin], for which, in the data set with A2780 (A2780, 4+3 model), the “Synergy or antagonism of second agent with tazemetostat (IC50 shift of second agent)” value is “B (Synergy > 4× IC50 shift)”.
With `CCc1cnn2c(NCc3ccc[n+]([O-])c3)cc(N3CCCC[C@H]3CCO)nc12` [Dinaciclib], the “Synergy or antagonism of second agent with tazemetostat (IC50 shift of second agent)” value in the data set with CAMA-1 was “A (Antagonism)”.
With `Nc1ccn([C@@H]2O[C@H](CO)[C@@H](O)C2(F)F)c(=O)n1` [Gemcitabine], the “Synergy or antagonism of second agent with tazemetostat (IC50 shift of second agent)” value in the data set with A2780 (A2780, 4+3 model) was “B (Synergy > 4× IC50 shift)”; in the data set on RMUGS*, “B (Synergy > 4× IC50 shift)”; in the data set with HCC1419, “C (Synergy > 2× IC50 shift)”; in the data set with COV504 (COV504, 4+3 model), “C (Synergy > 2× IC50 shift)”; with SKOV3, “C (Synergy > 2× IC50 shift)”.
For `Cc1ccc(NC(=O)c2ccc(CN3CCN(C)CC3)cc2)cc1Nc1nccc(-c2cccnc2)n1` [Imatinib], in the data set on ES-2, the “Synergy or antagonism of second agent with tazemetostat (IC50 shift of second agent)” value is reported as “A (Antagonism)”.
Regarding `NC(=O)c1ccc(I)c([N+](=O)[O-])c1` [Iniparib (BSI 201), Iniparib], the “Synergy or antagonism of second agent with tazemetostat (IC50 shift of second agent)” value in the data set with CAMA-1, in the data set on HCC1419 and in the data set on SUM52PE was “C (Synergy > 2× IC50 shift)” throughout.
With `C=CCn1c(=O)c2cnc(Nc3ccc(N4CCN(C)CC4)cc3)nc2n1-c1cccc(C(C)(C)O)n1` [MK1775], the “Synergy or antagonism of second agent with tazemetostat (IC50 shift of second agent)” value in the data set on CAOV-3 was “C (Synergy > 2× IC50 shift)”; in the data set on A2780 (A2780, 4+3 model), “B (Synergy > 4× IC50 shift)”; in the data set on JH)S-4, “C (Synergy > 2× IC50 shift)”; in the data set with RMUGS*, “B (Synergy > 4× IC50 shift)”; in the data set on TOV112D, “C (Synergy > 2× IC50 shift)”; with COV504 (COV504, 4+3 model), “C (Synergy > 2× IC50 shift)”. Moreover, the results for the “Synergy or antagonism of second agent with tazemetostat (IC50 shift of second agent)” value in the data set with COV644*, in the data set on KURAMOCHI and in the data set on SKOV3 were “B (Synergy > 4× IC50 shift)”, “C (Synergy > 2× IC50 shift)” and “C (Synergy > 2× IC50 shift)”, respectively.
`O=C(c1cc(Cc2n[nH]c(=O)c3ccccc23)ccc1F)N1CCN(C(=O)C2CC2)CC1` [Olaparib]: the “Synergy or antagonism of second agent with tazemetostat (IC50 shift of second agent)” value in the data set on A2780 (A2780, 4+3 model) is on record as “B (Synergy > 4× IC50 shift)”; in the data set with SUM159PT, “C (Synergy > 2× IC50 shift)”.
`Cc1[nH]c2ccccc2c1CCNCc1ccc(/C=C/C(=O)NO)cc1` [Panobinostat]: the “Synergy or antagonism of second agent with tazemetostat (IC50 shift of second agent)” value with CAOV-3 is listed as “C (Synergy > 2× IC50 shift)”; in the data set with OVMANA it was “C (Synergy > 2× IC50 shift)”; in the data set on OVISE, “C (Synergy > 2× IC50 shift)”; in the data set on COV362 it was “C (Synergy > 2× IC50 shift)”; in the data set with A2780 (A2780, 4+3 model) it was “B (Synergy > 4× IC50 shift)”; with JH)S-4, “C (Synergy > 2× IC50 shift)”. In addition, the “Synergy or antagonism of second agent with tazemetostat (IC50 shift of second agent)” value in the data set with TOV112D is “C (Synergy > 2× IC50 shift)”; in the data set with OVSAHO, “C (Synergy > 2× IC50 shift)”; with COV504 (COV504, 4+3 model), “B (Synergy > 4× IC50 shift)”; with SNU840, “C (Synergy > 2× IC50 shift)”; in the data set with TOV21G, “C (Synergy > 2× IC50 shift)”; in the data set on COV644*, “C (Synergy > 2× IC50 shift)”. The results for the “Synergy or antagonism of second agent with tazemetostat (IC50 shift of second agent)” value in the data set with KURAMOCHI, in the data set on OV-90 and in the data set on SKOV3 were “C (Synergy > 2× IC50 shift)”, “C (Synergy > 2× IC50 shift)” and “B (Synergy > 4× IC50 shift)”, respectively.
Take `CS(=O)(=O)N1CCN(Cc2cc3nc(-c4cccc5[nH]ncc45)nc(N4CCOCC4)c3s2)CC1` [Pictilisib]: the “Synergy or antagonism of second agent with tazemetostat (IC50 shift of second agent)” value in the data set on CAOV-3 is “C (Synergy > 2× IC50 shift)”; with OVMANA, “C (Synergy > 2× IC50 shift)”; with A2780 (A2780, 4+3 model) it was “C (Synergy > 2× IC50 shift)”; with SNU840, “C (Synergy > 2× IC50 shift)”; in the data set on COV644*, “C (Synergy > 2× IC50 shift)”.
Consider `C/C=C1\NC(=O)[C@H]2CSSCC/C=C/[C@H](CC(=O)N[C@H](C(C)C)C(=O)N2)OC(=O)[C@H](C(C)C)NC1=O` [Romidepsin], for which the entries for the “Synergy or antagonism of second agent with tazemetostat (IC50 shift of second agent)” value in the data set with COV362 and with COV504 were “C (Synergy > 2× IC50 shift)” and “C (key: B: Synergy > 4× IC50 shift; Synergy > 2× IC50 shift; No Effect; Antagonism; X: Not Tested)”, respectively.
`Cc1cc(Nc2ccc(NC(=O)c3ccc(Nc4ccnc5ccccc45)cc3)cc2)nc(N)n1` [SGI1027]: the figures for the “Synergy or antagonism of second agent with tazemetostat (IC50 shift of second agent)” value in the data set with CAMA-1, with BT474 and in the data set with DU4475 were “C (Synergy > 2× IC50 shift)”, “B (Synergy > 4× IC50 shift)” and “A (Antagonism)”, respectively.
Regarding `CCCS(=O)(=O)Nc1ccc(F)c(C(=O)c2c[nH]c3ncc(-c4ccc(Cl)cc4)cc23)c1F` [Vemurafenib], the “Synergy or antagonism of second agent with tazemetostat (IC50 shift of second agent)” value in the data set on ES-2 was “C (Synergy > 2× IC50 shift)”.
AZD5363: the “Synergy or antagonism of second agent with tazemetostat (IC50 shift of second agent)” value in the data set with A2780 is reported as “B (key: B: Synergy > 4× IC50 shift; Synergy > 2× IC50 shift; No Effect; Antagonism; X: Not Tested)”.
